The numbers were not newly measured in PMC9851200, “Multiparameter phenotypic screening for endogenous TFEB and TFE3 translocation identifies novel chemical series modulating lysosome function” (Autophagy, 2022), which cites them from elsewhere.

Set-up in all cases: method as in original PKIS2 published data
In data set [1] the target is T1, kinases (KINOMEscan panel) (Homo sapiens, UniProt O95835).
T1 sequence (O95835 1-1130): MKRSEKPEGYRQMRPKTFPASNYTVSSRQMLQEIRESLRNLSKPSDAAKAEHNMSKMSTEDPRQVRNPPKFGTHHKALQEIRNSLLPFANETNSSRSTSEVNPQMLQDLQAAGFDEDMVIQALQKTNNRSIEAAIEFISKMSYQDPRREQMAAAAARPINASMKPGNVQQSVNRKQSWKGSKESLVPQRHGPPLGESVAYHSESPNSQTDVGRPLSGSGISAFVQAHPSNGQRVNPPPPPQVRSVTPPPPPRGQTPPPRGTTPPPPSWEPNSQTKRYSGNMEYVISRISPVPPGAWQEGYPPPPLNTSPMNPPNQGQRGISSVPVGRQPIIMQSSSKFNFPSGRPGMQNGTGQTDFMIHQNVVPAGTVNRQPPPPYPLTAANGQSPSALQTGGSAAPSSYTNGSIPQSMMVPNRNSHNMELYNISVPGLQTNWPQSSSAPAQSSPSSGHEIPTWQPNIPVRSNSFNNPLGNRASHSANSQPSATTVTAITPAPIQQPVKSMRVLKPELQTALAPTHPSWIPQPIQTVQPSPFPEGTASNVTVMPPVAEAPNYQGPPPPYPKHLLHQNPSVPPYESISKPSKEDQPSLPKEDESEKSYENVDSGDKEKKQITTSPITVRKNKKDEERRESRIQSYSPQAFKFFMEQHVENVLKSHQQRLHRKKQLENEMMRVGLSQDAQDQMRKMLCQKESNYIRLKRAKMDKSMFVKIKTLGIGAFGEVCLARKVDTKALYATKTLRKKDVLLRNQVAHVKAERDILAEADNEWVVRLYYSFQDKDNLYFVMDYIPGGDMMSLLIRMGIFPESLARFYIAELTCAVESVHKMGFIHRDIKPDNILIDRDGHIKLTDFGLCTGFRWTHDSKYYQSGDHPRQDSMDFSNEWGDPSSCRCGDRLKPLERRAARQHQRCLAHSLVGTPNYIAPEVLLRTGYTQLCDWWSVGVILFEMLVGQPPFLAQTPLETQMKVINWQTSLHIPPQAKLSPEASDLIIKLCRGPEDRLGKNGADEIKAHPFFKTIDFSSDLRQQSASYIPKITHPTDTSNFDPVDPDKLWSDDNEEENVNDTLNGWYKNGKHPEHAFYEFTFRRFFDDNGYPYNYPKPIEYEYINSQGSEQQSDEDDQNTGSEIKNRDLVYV
The note with it: LATS1; Published KINOMEscan; ref original PKIS2 published data; cited from earlier work.

In data set [2] the target is T2, kinases (KINOMEscan panel) (Homo sapiens, UniProt Q8TD19).
T2 sequence (Q8TD19 1-979): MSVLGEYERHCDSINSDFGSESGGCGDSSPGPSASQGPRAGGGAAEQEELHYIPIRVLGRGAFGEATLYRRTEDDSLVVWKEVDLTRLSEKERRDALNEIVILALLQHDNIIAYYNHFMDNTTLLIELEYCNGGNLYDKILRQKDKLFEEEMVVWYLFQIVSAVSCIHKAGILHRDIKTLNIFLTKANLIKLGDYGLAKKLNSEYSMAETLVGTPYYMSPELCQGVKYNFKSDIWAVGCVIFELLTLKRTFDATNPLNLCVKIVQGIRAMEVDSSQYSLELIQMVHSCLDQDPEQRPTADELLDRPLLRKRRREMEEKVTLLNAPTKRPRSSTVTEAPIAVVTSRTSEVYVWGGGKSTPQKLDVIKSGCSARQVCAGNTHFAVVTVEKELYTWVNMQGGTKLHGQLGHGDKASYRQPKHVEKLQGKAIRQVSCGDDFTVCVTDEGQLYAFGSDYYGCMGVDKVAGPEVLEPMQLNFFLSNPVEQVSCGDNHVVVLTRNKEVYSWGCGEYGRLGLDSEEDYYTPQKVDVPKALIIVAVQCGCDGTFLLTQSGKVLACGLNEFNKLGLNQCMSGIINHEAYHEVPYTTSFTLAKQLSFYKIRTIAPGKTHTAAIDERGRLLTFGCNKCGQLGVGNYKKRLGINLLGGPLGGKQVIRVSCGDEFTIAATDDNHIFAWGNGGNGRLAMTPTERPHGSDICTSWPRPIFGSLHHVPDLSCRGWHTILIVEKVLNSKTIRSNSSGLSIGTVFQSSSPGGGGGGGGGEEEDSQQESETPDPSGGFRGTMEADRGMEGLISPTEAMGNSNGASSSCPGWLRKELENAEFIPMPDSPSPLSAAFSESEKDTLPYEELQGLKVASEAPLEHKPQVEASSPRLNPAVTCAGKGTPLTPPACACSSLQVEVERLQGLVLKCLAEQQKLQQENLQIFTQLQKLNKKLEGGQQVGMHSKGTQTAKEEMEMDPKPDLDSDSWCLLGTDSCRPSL
The note with it: NEK9; Published KINOMEscan; ref original PKIS2 published data; cited from earlier work.

For data set [3], the target named is kinases (KINOMEscan panel) (Homo sapiens, UniProt Q9BYT3). To be noted: kinase STK33; Published KINOMEscan; ref original PKIS2 published data; cited from earlier work.
Chain of kinases (KINOMEscan panel) (Homo sapiens, UniProt Q9BYT3) (Q9BYT3 whole entry): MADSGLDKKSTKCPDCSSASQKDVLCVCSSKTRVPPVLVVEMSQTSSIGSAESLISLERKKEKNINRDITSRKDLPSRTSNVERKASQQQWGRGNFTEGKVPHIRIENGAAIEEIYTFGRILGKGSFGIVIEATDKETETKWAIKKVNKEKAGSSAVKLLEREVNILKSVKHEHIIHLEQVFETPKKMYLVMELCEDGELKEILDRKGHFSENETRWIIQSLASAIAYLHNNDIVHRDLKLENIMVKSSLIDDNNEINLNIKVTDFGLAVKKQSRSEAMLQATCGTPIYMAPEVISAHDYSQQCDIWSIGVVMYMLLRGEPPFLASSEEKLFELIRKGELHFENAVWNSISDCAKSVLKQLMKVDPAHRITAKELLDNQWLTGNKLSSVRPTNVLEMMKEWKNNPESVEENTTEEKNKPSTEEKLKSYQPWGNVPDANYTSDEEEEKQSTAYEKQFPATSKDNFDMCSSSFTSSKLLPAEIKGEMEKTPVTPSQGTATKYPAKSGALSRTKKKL

In the case of `Cc1cccc(-c2nc(Nc3ccncc3)c3ccccc3n2)n1` [NK215], in data set [1], the “KINOMEscan LATS1” value was 3. In addition, in data set [2], the “KINOMEscan NEK9” value is 0. The “KINOMEscan STK33” value in data set [3] is recorded as 2.
